Assays:
[1] = target: T1, Enoyl-[acyl-carrier-protein] reductase [NADH] (Mycobacterium tuberculosis, UniProt P9WGR1, V203A)
[2] = target: Enoyl-[acyl-carrier-protein] reductase [NADH] (Mycobacterium tuberculosis, UniProt P9WGR1, I215A); assay: biochemical
[3] = target: T1, Enoyl-[acyl-carrier-protein] reductase [NADH]; remark: listed apart in the source
[4] = target: T2, Enoyl-[acyl-carrier-protein] reductase [NADH] (Mycobacterium tuberculosis, UniProt P9WGR1, S94A); assay: Inhibition of Mycobacterium tuberculosis InhA S94A mutant using trans-2-decenoyl-CoA as substrate by spectrophotometric analysis
[5] = target: Enoyl-[acyl-carrier-protein] reductase [NADH] (Mycobacterium tuberculosis, UniProt P9WGR1, I21V); assay: Inhibition of Mycobacterium tuberculosis InhA I21V mutant using trans-2-decenoyl-CoA as substrate by spectrophotometric analysis
[6] = target: Enoyl-[acyl-carrier-protein] reductase [NADH] (Mycobacterium tuberculosis, UniProt P9WGR1, T2A); assay: Inhibition of Mycobacterium tuberculosis InhA T2A mutant
[7] = target: Enoyl-[acyl-carrier-protein] reductase [NADH] (Mycobacterium tuberculosis, UniProt P9WGR1, D2A); assay: Inhibition of Mycobacterium tuberculosis InhA D2A mutant
[8] = target: T2, Enoyl-[acyl-carrier-protein] reductase [NADH]; assay: Inhibition of Mycobacterium tuberculosis InhA S94A mutant
[9] = test system: Mycobacterium tuberculosis; assay: Antimycobacterial activity against Mycobacterium tuberculosis harboring InhA T2A mutant; type: functional

SMILES	Ki [1] [nM]	Ki [2] [nM]	Ki [3] [nM]	Ki [4] [nM]	Ki [5] [nM]	IC50 [6] [nM]	Ki [6] [nM]	IC50 [7] [nM]	Ki [7] [nM]	IC50 [8] [nM]	Ki [8] [nM]	MIC50 [9] [µM]
CCCCCCc1ccc(Oc2ccccc2C)c(O)c1	427	114	913	–	–	–	–	–	–	–	–	–
NC(=O)c1c[n+]([C@@H]2O[C@H](COP(=O)(O)OP(=O)(O)OC[C@H]3O[C@@H](n4cnc5c(N)ncnc54)[C@H](O)[C@@H]3O)[C@@H](O)[C@H]2O)ccc1C(=O)c1ccncc1	–	–	–	5.3	2.1	19	5	323	172	323	172	1.8

— ChEMBL document CHEMBL4145513, “An overview on crystal structures of InhA protein: Apo-form, in complex with its natural ligands and inhibitors” (Eur J Med Chem, 2018)
